Experimental findings from US8263591B2, “Bicyclic amides for enhancing glutamatergic synaptic responses” (Cortex Pharmaceuticals, Inc., priority 2007, dated 2012) are described below.

Each structure is given as a SMILES string.

One data set relates to AMPA receptor. As to the kind of experiment: In vivo electrophysiology: amplitude of field EPSP in dentate gyrus of anesthetized animals. The protocol:
(§1) The electrophysiological effects of the invention compounds were tested in vivo in anesthetized animals according to the following procedures. Animals are maintained under anesthesia by phenobarbital administered using a Hamilton syringe pump. Stimulating and recording electrodes are inserted into the perforant path and dentate gyrus of the hippocampus, respectively. Once electrodes are implanted, a stable baseline of evoked responses are elicited using single monophasic pulses (100 μs pulse duration) delivered at 3/min to the stimulating electrode. Field EPSPs are monitored until a stable baseline is achieved (about 20-30 min), after which a solution of test compound is injected intraperitoneally and evoked field potentials are recorded. Evoked potentials were recorded for approximately 2 h following drug administration or until the amplitude of the field EPSP returns to baseline. In the latter instance, it is common that an iv administration is also carried out with an appropriate dose of the same test compound. Invention compounds were assayed in the in vivo electrophysiology assay described above and data for representative test compounds is shown in column 1 in Table 1.
The electrophysiological effects of invention compounds were tested in vivo in anesthetized animals according to the following procedures.
as §1, with “Animals” for “The electrophysiological effects of the invention compounds were tested in vivo in anesthetized animals according to the following procedures. Animals”, “are” for “were”, “compound.” for “compound. Invention compounds were assayed in the in vivo electrophysiology assay described above and data for representative test compounds is shown in column 1 in Table 1.”

A further data set concerns Male CD1 mice. As to the kind of experiment: Inhibition of d-Amphetamine stimulated locomotion. Format: in vivo. The following applies: 18 mpk i.p., d-amphetamine 2 mg/kg. How it is done:
The ability of the invention compounds to inhibit d-Amphetamine stimulated locomotor activity was assayed according to the following procedure. Male CD1 mice, 25-30 gm body o weight, were brought into the experimental room and allowed at least 30 min of acclamation.
Each mouse was placed into the testing enclosure with an infrared beam array that automatically monitors the animal's activity. Mice were habituated in the testing enclosure for 20 min, and then returned to their home cage. Mice were dosed intraperitoneally with test compound in appropriate vehicle 5 minutes before d-Amphetamine injection (2 mpk). Ten minutes after d-Amphetamine injection, mice were tested for locomotor activity for a total of 15 minutes. The data was computer collected and expressed as “arbitrary movement units.” All data were analyzed by comparing the groups treated with the test compound to the vehicle control group. The data shown is the % inhibition of hyperactivity induced by acute administration of 2 mg/kg d-amphetamine in mice. […]
Male CD1 mice, 25-30 gm body weight, were brought into the experimental room and allowed at least 30 min of acclamation. […] The data was computer collected and expressed as “arbitrary movement units.” All data were analyzed by comparing the groups treated with the test compound to the vehicle control group.

For orientation: melting point means the temperature of the solid-liquid transition. `O=C(c1ccc2nonc2c1)N1C2CCC1CC2` yielded a melting point of 143 to 144 °C. Same read-out and setting: under `O=C(c1ccc2nonc2c1)N1C2CCC1CC(O)C2` (stereo not drawn) [5] stands 169 to 171 °C; under `O=C(c1ccc2nonc2c1)N1C2CCC1CC(O)C2` (stereo not drawn) [6], 176 to 177 °C. The compound `O=C(c1ccc2nonc2c1)N1C2CCCC1CC2` [Example 1, 8-Azabicyclo[3.2.1]oct-8-yl([2,1,3]-benzoxadiazol-5-yl)methanone] registered a melting point of 128 to 130 °C. The “% increase in the amplitude of the field EPSP in the dentate gyrus of rat” value (“% increase in the amplitude” below) in the data set with AMPA receptor (10 mpk i.p.) was 22%. In addition, the “% Inhibition of d-amphetamine stimulated locomotion” value in the data set with Male CD1 mice was 69%. Take `O=C1CC2CCC(C1)N2C(=O)c1ccc2nonc2c1` [Example 2, 8-([2,1,3]-Benzoxadiazol-5-ylcarbonyl)-8-azabicyclo[3.2.1]octan-3-one]: the melting point lay in the range of 164 to 166 °C. In addition, the “% increase in the amplitude” value in the data set with AMPA receptor (10 mpk i.p.) is 16%. Besides, the “% Inhibition of d-amphetamine stimulated locomotion” value in the data set with Male CD1 mice turned out to be 40%.

`O=C(c1ccc2nonc2c1)N1C2CCC1CC(F)(F)C2` [Example 3, [2,1,3]-Benzoxadiazol-5-yl(3,3-difluoro-8-azabicyclo[3.2.1]oct-8-yl)methanone] yielded a melting point of 165 to 166 °C. Further, the “% increase in the amplitude” value in the data set with AMPA receptor (10 mpk i.p.) was 8%. As to `O=C(c1ccc2nonc2c1)N1C2C=C(F)CC1CC2` (stereo not drawn) [Example 4, [2,1,3]-benzoxadiazol-5-yl(3-fluoro-8-azabicyclo[3.2.1]oct-2-en-8-yl)methanone], the “% increase in the amplitude” value in the data set with AMPA receptor (10 mpk i.p.) amounted to 25%. Compound `O=C(c1ccc2nonc2c1)N1CC2CCC1C2` (stereo not drawn) [Example 7, 2-Azabicyclo[2.2.1]hept-2-yl([2,1,3]-benzoxadiazol-5-yl)methanone] registered a melting point of 92 to 93 °C. The “% increase in the amplitude” value with AMPA receptor (dosed i.v.) was 20%^3. Compound `O=C(c1ccc2nonc2c1)N1CC2CCC1CC2` [Example 9, 2-Azabicyclo[2.2.2]oct-2-yl([2,1,3]-benzoxadiazol-5-yl)methanone] displayed a melting point of 138 to 139 °C. Still for that read-out and setting: under `O=C(c1ccc2nonc2c1)N1CC2CC1CO2` (stereo not drawn) [Example 10, [2,1,3]-benzoxadiazol-5-yl(2-oxa-5azabicyclo[2.2.1]hept-5-yl)methanone] stands 102 to 104 °C; under `O=C(c1ccc2nonc2c1)N1CC2C=CC1C2` (stereo not drawn) [Example 11, 2-Azabicyclo[2.2.1]hept-5-en-2-yl([2,1,3]-benzoxadiazol-5-yl)methanone], 106 to 108 °C; under `O=C(c1ccc2nonc2c1)N1CC2CC1C(Cl)C2Cl` (stereo not drawn) [Example 14, [2,1,3]-Benzoxadiazol-5-yl(5,6-dichloro-2-azabicyclo[2.2.1]hept-2-yl)methanone], 156 to 157 °C.
